Biological target: T1, CCR2 (Homo sapiens, UniProt P41597)
T1 construct: expressed in transfected cells
Assay: CCR2 calcium activity assay on FLIPR Tetra in HEK-Gqi5 cells stably expressing CCR2
Format: cell-based

T1 sequence (P41597 whole entry, species assumed): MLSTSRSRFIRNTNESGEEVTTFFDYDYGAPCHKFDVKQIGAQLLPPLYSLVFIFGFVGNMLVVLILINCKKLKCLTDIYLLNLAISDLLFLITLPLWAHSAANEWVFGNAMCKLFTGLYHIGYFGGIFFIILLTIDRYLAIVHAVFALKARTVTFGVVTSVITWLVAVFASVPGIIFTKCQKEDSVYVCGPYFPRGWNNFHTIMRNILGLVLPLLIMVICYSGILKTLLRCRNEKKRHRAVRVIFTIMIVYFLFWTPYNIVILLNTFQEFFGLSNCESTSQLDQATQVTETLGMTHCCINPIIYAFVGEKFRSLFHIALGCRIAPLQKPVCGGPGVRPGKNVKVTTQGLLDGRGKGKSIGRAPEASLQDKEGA

CCR2 % ANTAG | IC50 | Structure (SMILES)
78% | 1230 nM | CN(C)c1ccc(NS(=O)(=O)c2ccc3c(c2)c(=O)sn3C)c(NS(=O)(=O)c2cccs2)c1 [N-{4-(dimethylamino)-2-[(2-thienylsulfonyl)amino]phenyl}-1-methyl-3-oxo-1,3-dihydro-2,1-benzisothiazole-5-sulfonamide]
99% | 1080 nM | Cn1sc(=O)c2cc(S(=O)(=O)Nc3ccccc3NS(=O)(=O)c3ccc(Cl)cc3)ccc21 [N-(2-{[(4-chlorophenyl)sulfonyl]amino}phenyl)-1-methyl-3-oxo-1,3-dihydro-2,1-benzisothiazole-5-sulfonamide]
46% | – | Cn1sc(=O)c2cc(S(=O)(=O)N[C@@H]3CCCC[C@H]3NC(=O)c3cccs3)ccc21 (relative stereo) [rel-N-[(1R,2R)-2-{[(1-methyl-3-oxo-1,3-dihydro-2,1-benzisothiazol-5-yl)sulfonyl]amino}cyclohexyl]thiophene-2-carboxamide]
56% | 2180 nM | Cn1sc(=O)c2cc(S(=O)(=O)NCc3ccccc3NS(=O)(=O)c3cccs3)ccc21 [1-methyl-3-oxo-N-{2-[(2-thienylsulfonyl)amino]benzyl}-1,3-dihydro-2,1-benzisothiazole-5-sulfonamide]
91% | 531 nM | Cc1cc(NS(=O)(=O)c2cccs2)c(NS(=O)(=O)c2ccc3c(c2)c(=O)sn3C)cc1Cl [N-{5-chloro-4-methyl-2-[(2-thienylsulfonyl)amino]phenyl}-1-methyl-3-oxo-1,3-dihydro-2,1-benzisothiazole-5-sulfonamide]
94% | 985 nM | CC(C)c1ccc(S(=O)(=O)Nc2ccc(Cl)cc2NS(=O)(=O)c2ccc3c(c2)c(=O)sn3C)cc1 [N-(5-chloro-2-{[(4-isopropylphenyl)sulfonyl]amino}phenyl)-1-methyl-3-oxo-1,3-dihydro-2,1-benzisothiazole-5-sulfonamide]
103% | 2340 nM | Cn1sc(=O)c2cc(S(=O)(=O)Nc3cc(Cl)c(Cl)cc3NS(=O)(=O)c3cc(Cl)c(Cl)s3)ccc21 [N-(4,5-dichloro-2-{[(4,5-dichloro-2-thienyl)sulfonyl]amino}phenyl)-1-methyl-3-oxo-1,3-dihydro-2,1-benzisothiazole-5-sulfonamide]
54% | – | Cn1sc(=O)c2cc(S(=O)(=O)N3CCCC(NS(=O)(=O)c4cccs4)C3)ccc21 (stereo not shown) [N-{1-[(1-methyl-3-oxo-1,3-dihydro-2,1-benzisothiazol-5-yl)sulfonyl]piperidin-3-yl}thiophene-2-sulfonamide]
95% | 680 nM | Cc1ccc(S(=O)(=O)Nc2ccc(Cl)cc2NS(=O)(=O)c2ccc3c(c2)c(=O)sn3C)cc1 [N-(5-chloro-2-{[(4-methylphenyl)sulfonyl]amino}phenyl)-1-methyl-3-oxo-1,3-dihydro-2,1-benzisothiazole-5-sulfonamide]
30% | – | Cn1sc(=O)c2cc(S(=O)(=O)NCC(C)(C)NS(=O)(=O)c3cccs3)ccc21 [1-methyl-N-{2-methyl-2-[(2-thienylsulfonyl)amino]propyl}-3-oxo-1,3-dihydro-2,1-benzisothiazole-5-sulfonamide]
79% | 2370 nM | Cn1sc(=O)c2cc(S(=O)(=O)N[C@@H]3CCCC[C@H]3NS(=O)(=O)c3cccs3)ccc21 (relative stereo) [rel-1-methyl-3-oxo-N-{(1R,2R)-2-[(2-thienylsulfonyl)amino]cyclohexyl}-1,3-dihydro-2,1-benzisothiazole-5-sulfonamide]
24% | 606 nM | Cn1sc(=O)c2cc(S(=O)(=O)Nc3ccccc3NS(=O)(=O)c3ccc(C(F)(F)F)cc3)ccc21 [1-methyl-3-oxo-N-[2-({[4-(trifluoromethyl)phenyl]sulfonyl}amino)phenyl]-1,3-dihydro-2,1-benzisothiazole-5-sulfonamide]
84% | 529 nM | Cn1sc(=O)c2cc(S(=O)(=O)Nc3cc(Cl)c(Cl)cc3NS(=O)(=O)c3ccc(Cl)c(C(F)(F)F)c3)ccc21 [N-[4,5-dichloro-2-({[4-chloro-3-(trifluoromethyl)phenyl]sulfonyl}amino)phenyl]-1-methyl-3-oxo-1,3-dihydro-2,1-benzisothiazole-5-sulfonamide]
91% | 493 nM | Cn1sc(=O)c2cc(S(=O)(=O)Nc3cc(Cl)ccc3NS(=O)(=O)c3cccc(Cl)c3)ccc21 [N-(5-chloro-2-{[(3-chlorophenyl)sulfonyl]amino}phenyl)-1-methyl-3-oxo-1,3-dihydro-2,1-benzisothiazole-5-sulfonamide]
87% | 522 nM | Cn1sc(=O)c2cc(S(=O)(=O)Nc3cc(C(F)(F)F)c(Cl)cc3NS(=O)(=O)c3cccs3)ccc21 [N-{4-chloro-2-[(2-thienylsulfonyl)amino]-5-(trifluoromethyl)phenyl}-1-methyl-3-oxo-1,3-dihydro-2,1-benzisothiazole-5-sulfonamide]
90% | 1100 nM | Cn1sc(=O)c2cc(S(=O)(=O)Nc3ccccc3NS(=O)(=O)c3nnc[nH]3)ccc21 [1-methyl-3-oxo-N-{2-[(4H-1,2,4-triazol-3-ylsulfonyl)amino]phenyl}-1,3-dihydro-2,1-benzisothiazole-5-sulfonamide]
77% | – | Cn1sc(=O)c2cc(S(=O)(=O)Nc3ccccc3NS(=O)(=O)c3cccnc3)ccc21 [1-methyl-3-oxo-N-{2-[(pyridin-3-ylsulfonyl)amino]phenyl}-1,3-dihydro-2,1-benzisothiazole-5-sulfonamide]
0% | > 8300 nM | COC(=O)c1ccc(NS(=O)(=O)c2ccc3c(c2)c(=O)sn3C)c(NS(=O)(=O)c2cccs2)c1 [methyl 4-{[(1-methyl-3-oxo-1,3-dihydro-2,1-benzisothiazol-5-yl)sulfonyl]amino}-3-[(2-thienylsulfonyl)amino]benzoate]
20% | 2490 nM | Cn1sc(=O)c2cc(S(=O)(=O)NC(C)(C)CNS(=O)(=O)c3cccs3)ccc21 [N-{1,1-dimethyl-2-[(2-thienylsulfonyl)amino]ethyl}-1-methyl-3-oxo-1,3-dihydro-2,1-benzisothiazole-5-sulfonamide]
68% | 559 nM | CC(C)n1sc(=O)c2cc(S(=O)(=O)Nc3cccc4c3OC(F)(F)C(F)(F)O4)ccc21 [1-isopropyl-3-oxo-N-(2,2,3,3-tetrafluoro-2,3-dihydro-1,4-benzodioxin-5-yl)-1,3-dihydro-2,1-benzisothiazole-5-sulfonamide]
59% | 2720 nM | Cn1sc(=O)c2cc(S(=O)(=O)Nc3cc(C#N)ccc3NS(=O)(=O)c3cccs3)ccc21 [N-{5-cyano-2-[(2-thienylsulfonyl)amino]phenyl}-1-methyl-3-oxo-1,3-dihydro-2,1-benzisothiazole-5-sulfonamide]
60% | 1300 nM | COc1ccc(NS(=O)(=O)c2ccc3c(c2)c(=O)sn3C)c(NS(=O)(=O)c2cccs2)c1 [N-{4-methoxy-2-[(2-thienylsulfonyl)amino]phenyl}-1-methyl-3-oxo-1,3-dihydro-2,1-benzisothiazole-5-sulfonamide]

— patent US8524745B2 (Allergan, Inc., priority 2011, dated 2013)
